From patent US12144351B2, “Herbicidal mixtures comprising L-glufosinate and their use in corn cultures” (priority 2017, dated 2024)

Tests used:
Test in all cases: Post emergence treatment, greenhouse pot test, herbicidal activity
Format in all cases: in vivo
Details in all cases: scale 0 to 100
[1] = test system: ECHCG (Echinochloa crus-galli)
Description: (§1) The analysis of synergism or antagonism between the mixtures or compositions was determined using Colby's equation.
(§2) The culture containers used were plastic flowerpots containing loamy sand with approximately 3.0% of humus as the substrate. The seeds of the test plants were sown separately for each species and/or resistant biotype. […] The containers were irrigated gently to promote germination and growth and subsequently covered with transparent plastic hoods until the plants had rooted. This cover caused uniform germination of the test plants, unless this had been impaired by the active ingredients. […] For this purpose, the test plants were either sown directly and grown in the same containers, or they were first grown separately as seedlings and transplanted into the test containers a few days prior to treatment. Depending on the species, the plants were kept at 10-25° C. or 20-35° C., respectively. The test period extended to 20 days after treatment. During this time, the plants were tended, and their response to the individual treatments was evaluated. The evaluation was carried out by using a scale from 0 to 100. 100 means no emergence of the plants or complete destruction of at least the above-ground parts, and 0 means no damage, or normal course of growth. Data shown are the mean of two replications.

KCHSC (Kochia scoparia) = test system: KCHSC (Kochia scoparia)
Description: as §1, §2

[2] = test system: ABUTH (Abutilon theophrasti)
Description: as §1, §2

AVEFA (Avena fatua) = test system: AVEFA (Avena fatua)
Description: as §1, §2

[3] = test system: COMBE (Commelina benghalensis)
Description: as §1, §2

[4] = test system: CHEAL (Chenopodium album)
Description: as §1, §2

SETVI (Setaria viridis) = test system: SETVI (Setaria viridis)
Description: as §1, §2

[5] = 2,4-D as dimethylammonium salt 70 g ai/ha
[6] = 2,4-D as dimethylammonium salt 140 g ai/ha

## C#CCN1C(=O)C(F)(F)Oc2cc(F)c(-n3c(=O)n(C)c(=S)n(C)c3=O)cc21 [Trifludimoxazin, trifludimoxazin]
[1]; Trifludimoxazin 0.25 g ai/ha
  Herbicidal activity against ECHCG, Found: 10

## COC[C@H](C)N(C(=O)CCl)c1c(C)csc1C [Dimethenamid-P]
KCHSC (Kochia scoparia); Dimethenamid-P 500 g ai/ha
  Herbicidal activity against KCHSC, Found: 0
KCHSC (Kochia scoparia); Dimethenamid-P 1000 g ai/ha
  Herbicidal activity against KCHSC, Found: 70

## CP(=O)(O)CC[C@H](N)C(=O)O [L-Glufosinate, (2S)-2-amino-4-[hydroxy(methyl)phosphinoyl]butyric acid]
[2]; L-Glufosinate 75 g ai/ha
  Herbicidal activity against ABUTH, Found: 0
[2]; L-Glufosinate 150 g ai/ha
  Herbicidal activity against ABUTH, Found: 55
[2]; L-Glufosinate 200 g ai/ha
  Herbicidal activity against ABUTH, Found: 65
AVEFA (Avena fatua); L-Glufosinate 75 g ai/ha
  Herbicidal activity against AVEFA, Found: 0
AVEFA (Avena fatua); L-Glufosinate 150 g ai/ha
  Herbicidal activity against AVEFA, Found: 0
[3]; L-Glufosinate 100 g ai/ha
  Herbicidal activity against COMBE, Found: 0

## CCc1cccc(C)c1N(C(=O)CCl)[C@@H](C)COC [S-Metolachlor, S-metolachlor]
[4]; S-Metolachlor 500 g ai/ha
  Herbicidal activity against CHEAL, Found: 20
[4]; S-Metolachlor 1000 g ai/ha
  Herbicidal activity against CHEAL, Found: 75

## Dicamba dimethylammonium salt [Dicamba as dimethylammonium salt]
SETVI (Setaria viridis); Dicamba as dimethylammonium salt 35 g ai/ha
  Herbicidal activity against SETVI, Found: 0
SETVI (Setaria viridis); Dicamba as dimethylammonium salt 70 g ai/ha
  Herbicidal activity against SETVI, Found: 0
SETVI (Setaria viridis); Dicamba as dimethylammonium salt 140 g ai/ha
  Herbicidal activity against SETVI, Found: 30

## CCOCCN(C(=O)CCl)C(=C(C)C)c1ccccc1 [Pethoxamid, pethoxamid]
[2]; Pethoxamid 50 g ai/ha
  Herbicidal activity against ABUTH, Found: 0
[2]; Pethoxamid 100 g ai/ha
  Herbicidal activity against ABUTH, Found: 0
AVEFA (Avena fatua); Pethoxamid 50 g ai/ha
  Herbicidal activity against AVEFA, Found: 0
AVEFA (Avena fatua); Pethoxamid 100 g ai/ha
  Herbicidal activity against AVEFA, Found: 0

## CNC.O=C(O)COc1ccc(Cl)cc1Cl [2,4-D as dimethylammonium salt, 2,4-D dimethylammonium salt]
AVEFA (Avena fatua); [5]
  Herbicidal activity against AVEFA, Found: 0
AVEFA (Avena fatua); [6]
  Herbicidal activity against AVEFA, Found: 0
SETVI (Setaria viridis); [5]
  Herbicidal activity against SETVI, Found: 0
SETVI (Setaria viridis); [6]
  Herbicidal activity against SETVI, Found: 0

## bicyclopyrone
[3]; Bicyclopyrone 1 g ai/ha
  Herbicidal activity against COMBE, Found: 0
[3]; Bicyclopyrone 2 g ai/ha
  Herbicidal activity against COMBE, Found: 10
[1]; Bicyclopyrone 1 g ai/ha
  Herbicidal activity against ECHCG, Found: 0
[1]; Bicyclopyrone 2 g ai/ha
  Herbicidal activity against ECHCG, Found: 0
